# Positions of bridges follow the written chain, without caps; N, C: chain ends. Residues, ends and D or L forms follow the SMILES beside them.
# Assays:
# female CD-1 mice = assay type: in vivo; details: oral gavage, % distance travelled by charcoal front in small intestine
# GC-C [1] = target: T1, GC-C (Homo sapiens, UniProt P25092); assay type: binding
# GC-C [2] = target: T1, GC-C; assay type: cell-based; details: for Ratio EC50 pH 8/EC50 pH 5: cGMP response in T84 cells
# [3] = system: ligated duodenal loops in rats; assay type: in vivo, rat; details: 2.5 μg of peptide per loop
# T1 sequence (P25092 24-1073 limits assumed): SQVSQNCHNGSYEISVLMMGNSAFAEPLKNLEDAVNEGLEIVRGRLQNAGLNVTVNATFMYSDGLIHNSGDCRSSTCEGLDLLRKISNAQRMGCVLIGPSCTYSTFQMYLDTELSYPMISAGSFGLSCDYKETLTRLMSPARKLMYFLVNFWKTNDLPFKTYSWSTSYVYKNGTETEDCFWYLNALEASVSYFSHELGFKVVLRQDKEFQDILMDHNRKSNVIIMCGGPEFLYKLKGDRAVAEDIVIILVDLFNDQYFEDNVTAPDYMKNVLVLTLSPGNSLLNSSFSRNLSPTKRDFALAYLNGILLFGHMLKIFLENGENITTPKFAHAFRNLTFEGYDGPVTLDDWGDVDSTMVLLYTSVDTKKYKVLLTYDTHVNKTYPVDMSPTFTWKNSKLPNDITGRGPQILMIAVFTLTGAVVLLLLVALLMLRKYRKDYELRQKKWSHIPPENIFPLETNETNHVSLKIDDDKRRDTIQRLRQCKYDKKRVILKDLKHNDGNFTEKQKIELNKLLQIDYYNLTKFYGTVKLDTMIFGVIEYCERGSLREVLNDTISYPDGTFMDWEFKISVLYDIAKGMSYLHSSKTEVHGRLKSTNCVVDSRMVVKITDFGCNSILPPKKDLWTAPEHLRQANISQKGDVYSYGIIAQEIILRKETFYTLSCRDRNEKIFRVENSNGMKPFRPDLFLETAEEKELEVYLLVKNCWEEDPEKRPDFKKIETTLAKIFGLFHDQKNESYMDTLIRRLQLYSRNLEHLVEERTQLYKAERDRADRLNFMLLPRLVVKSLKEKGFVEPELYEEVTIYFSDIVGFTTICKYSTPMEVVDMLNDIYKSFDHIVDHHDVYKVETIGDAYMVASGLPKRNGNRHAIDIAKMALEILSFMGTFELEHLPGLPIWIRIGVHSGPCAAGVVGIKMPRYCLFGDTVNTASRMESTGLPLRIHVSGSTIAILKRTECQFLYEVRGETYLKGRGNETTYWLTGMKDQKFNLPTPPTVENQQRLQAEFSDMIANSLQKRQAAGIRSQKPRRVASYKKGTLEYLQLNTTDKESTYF
SMILES,ED50 in the gastrointestinal transit assay (female CD-1 mice),Ratio Ki pH 8/Ki pH 5 (GC-C [1]),Ratio EC50 pH 8/EC50 pH 5 (GC-C [2]),pH sensitivity with regard to binding and/or activation of GC-C (GC-C [2]; pH 5 versus pH 8),Rate of HCO3- accumulation [3],Rate of fluid accumulation [3]
"CC(C)C[C@@H]1NC(=O)[C@H](CCC(=O)O)NC(=O)[C@@H]2CSSC[C@@H]3NC(=O)[C@H](C)NC(=O)[C@@H]4CCCN4C(=O)[C@H](CC(N)=O)NC(=O)[C@H](CSSC[C@H](N)C(=O)N2)NC(=O)[C@H](CSSC[C@@H](C(=O)N[C@@H](Cc2ccc(O)cc2)C(=O)O)NC(=O)CNC(=O)[C@H]([C@@H](C)O)NC3=O)NC1=O [Peptide 1, CCELCCNPACTGCY] (H-CCELCCNPACTGCY-OH; disulfide 1-6, 2-10, 5-13 (inferred); N-terminus and C-terminus assumed)",0.43 µg/kg,0.69,8.5,little or no pH sensitivity,80 neq/min/cm,2.0 µL/min/cm
"C[C@@H]1NC(=O)[C@@H]2CCCN2C(=O)[C@H](CC(N)=O)NC(=O)[C@@H]2CSSC[C@H](NC(=O)[C@H](CC(=O)O)NC(=O)[C@H](CC(=O)O)NC(=O)[C@@H](N)CC(N)=O)C(=O)N[C@H]3CSSC[C@H](NC1=O)C(=O)N[C@@H]([C@@H](C)O)C(=O)NCC(=O)N[C@H](C(=O)N[C@@H](Cc1ccc(O)cc1)C(=O)O)CSSC[C@H](NC(=O)[C@H](Cc1ccc(O)cc1)NC(=O)[C@H](CCC(=O)O)NC3=O)C(=O)N2 [Peptide 3, NDDCCEYCCNPACTGCY] (H-NDDCCEYCCNPACTGCY-OH; disulfide 4-9, 5-13, 8-16 (inferred); N-terminus and C-terminus assumed)",,17.5,25.3,,,
"C[C@@H]1NC(=O)[C@@H]2CCCN2C(=O)[C@H](CC(N)=O)NC(=O)[C@@H]2CSSC[C@H](NC(=O)[C@H](CC(=O)O)NC(=O)[C@H](CC(=O)O)NC(=O)[C@@H](N)CC(=O)O)C(=O)N[C@H]3CSSC[C@H](NC1=O)C(=O)N[C@@H]([C@@H](C)O)C(=O)NCC(=O)N[C@H](C(=O)N[C@@H](Cc1ccc(O)cc1)C(=O)O)CSSC[C@H](NC(=O)[C@H](Cc1ccc(O)cc1)NC(=O)[C@H](CCC(=O)O)NC3=O)C(=O)N2 [Peptide 5, DDDCCEYCCNPACTGCY]",7.54 µg/kg,5.52,256,,,
"C[C@H](N)C(=O)N[C@@H](CC(=O)O)C(=O)N[C@@H](CC(=O)O)C(=O)N[C@H]1CSSC[C@@H]2NC(=O)[C@@H]3CSSC[C@@H](C(=O)N[C@@H](Cc4ccc(O)cc4)C(=O)O)NC(=O)CNC(=O)[C@H]([C@@H](C)O)NC(=O)[C@H](CSSC[C@H](NC1=O)C(=O)N[C@@H](CCC(=O)O)C(=O)N[C@@H](Cc1ccc(O)cc1)C(=O)N3)NC(=O)[C@H](C)NC(=O)[C@@H]1CCCN1C(=O)[C@H](CC(N)=O)NC2=O [Peptide 9, ADDCCEYCCNPACTGCY]",,1.29,79.8,,,
"CC(C)C[C@@H]1NC(=O)[C@H](CCC(=O)O)NC(=O)[C@@H]2CSSC[C@@H]3NC(=O)[C@H](C)NC(=O)[C@@H]4CCCN4C(=O)[C@H](CC(N)=O)NC(=O)[C@H](CSSC[C@H](NC(=O)[C@H](CC(=O)O)NC(=O)[C@H](CC(=O)O)NC(=O)[C@@H](N)CC(N)=O)C(=O)N2)NC(=O)[C@H](CSSC[C@@H](C(=O)N[C@@H](Cc2ccc(O)cc2)C(=O)O)NC(=O)CNC(=O)[C@H]([C@@H](C)O)NC3=O)NC1=O [Peptide 11, NDDCCELCCNPACTGCY]",,6.43,2.7,,,
"CC(C)C[C@@H]1NC(=O)[C@H](CCC(=O)O)NC(=O)[C@@H]2CSSC[C@@H]3NC(=O)[C@H](C)NC(=O)[C@@H]4CCCN4C(=O)[C@H](CC(N)=O)NC(=O)[C@H](CSSC[C@H](NC(=O)[C@H](CC(=O)O)NC(=O)[C@H](CC(=O)O)NC(=O)[C@@H](N)CC(=O)O)C(=O)N2)NC(=O)[C@H](CSSC[C@@H](C(=O)O)NC(=O)CNC(=O)[C@H]([C@@H](C)O)NC3=O)NC1=O [Peptide 20, DDDCCELCCNPACTGC] (H-DDDCCELCCNPACTGC-OH; disulfide 4-9, 5-13, 8-16 (inferred); N-terminus and C-terminus assumed)",,3.6,90,,,

# Reference: patent US8735360B2 (priority 2009, dated 2014)
